Test results reported in patent US20230072421A1, “TARGETED RADIOPHARMACEUTICALS FOR THE DIAGNOSIS AND TREATMENT OF PROSTATE CANCER” (Bayer AS, priority 2019, published 2023).

Tests used:
22Rv1 cells = assay: Cell proliferation assay (CellTiter-Glo, 5-day exposure), 22Rv1; assay type: cell-based; conditions: 22Rv1, 1000 cells/well, Th-227 labelled at 375 kBq/nmol, mean of 1 to 6 experiments
Experimental: (§1) Inhibition of cell proliferation of Thorium-227 labeled PMSA SMOL ligands was tested different prostate cancer cell lines, namely 22Rv1, VCaP, C4-2 (all from ATCC, Manassas, Va., USA) and LNCaP (DMSZ, Braunschweig). Cells were seeded using the following conditions in 384 well plates (Corning) in 30 μl of growth media at 4000 cells/well for VCaP cells and 1000 cells/well for 22Rv1, C4-2 and LNCaP cells.
(§2) Cells were cultivated an incubator at 37° C. and 5% C02 over night. […] In sister plates cell viability at treatment start (d=0) was determined using CellTiter-Glo® assay (CTG, Promega, Madison, Wis., USA), by adding 30 μl per well CTG solution, incubation for 10 min and reading of Luminescence in a PheraStarFSX instrument (BMG Labtech). After a 5-day exposure in the presenced of test compounds, cell viability of treated or untreated control cells was determined again using CellTiter-Glo® assay (Promega, Madison, Wis., USA). […] The DRC software is a Biobook Spreadsheet that was developed by Bayer AG and Bayer Business Services on the IDBS E-Workbook Suite platform (IDBS: ID Business Solutions Ltd., Guildford, UK).

VCaP cells = assay: Cell proliferation assay (CellTiter-Glo, 5-day exposure), VCaP; assay type: cell-based; conditions: 4000 cells/well, Th-227 labelled at 375 kBq/nmol, mean of 1 to 6 experiments
Experimental: as §1, §2

C4-2 cells = assay: Cell proliferation assay (CellTiter-Glo, 5-day exposure), C4-2; assay type: cell-based; conditions: C4-2, 1000 cells/well, Th-227 labelled at 375 kBq/nmol, mean of 1 to 6 experiments
Experimental: as §1, §2

[1] = molecular target: T1, PSMA-expressing LNCaP cells (Homo sapiens, UniProt Q04609); assay: Binding competition assay against 3H-PSMA-617 on LNCaP cells; conditions: LNCaP cells, 10 nM 3H-PSMA-617, 2 h at 37° C., triplicates; for remaining activity at 0.01 µM: competing non-radiolabeled compound 10 nM; for remaining activity at 0.1 µM: competing non-radiolabeled compound 100 nM
T1 construct: PSMA-expressing LNCaP cells; endogenous in cells; host or cells: LNCaP
Outline: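 Compounds added to LNCaP cells in growth medium, 2 h at 37 °C, 5% CO2. After two ice-cold PBS washes, cells lysed in 0.3 M NaOH and bound radioactivity measured by liquid scintillation counting.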

T1 sequence (Q04609 whole entry): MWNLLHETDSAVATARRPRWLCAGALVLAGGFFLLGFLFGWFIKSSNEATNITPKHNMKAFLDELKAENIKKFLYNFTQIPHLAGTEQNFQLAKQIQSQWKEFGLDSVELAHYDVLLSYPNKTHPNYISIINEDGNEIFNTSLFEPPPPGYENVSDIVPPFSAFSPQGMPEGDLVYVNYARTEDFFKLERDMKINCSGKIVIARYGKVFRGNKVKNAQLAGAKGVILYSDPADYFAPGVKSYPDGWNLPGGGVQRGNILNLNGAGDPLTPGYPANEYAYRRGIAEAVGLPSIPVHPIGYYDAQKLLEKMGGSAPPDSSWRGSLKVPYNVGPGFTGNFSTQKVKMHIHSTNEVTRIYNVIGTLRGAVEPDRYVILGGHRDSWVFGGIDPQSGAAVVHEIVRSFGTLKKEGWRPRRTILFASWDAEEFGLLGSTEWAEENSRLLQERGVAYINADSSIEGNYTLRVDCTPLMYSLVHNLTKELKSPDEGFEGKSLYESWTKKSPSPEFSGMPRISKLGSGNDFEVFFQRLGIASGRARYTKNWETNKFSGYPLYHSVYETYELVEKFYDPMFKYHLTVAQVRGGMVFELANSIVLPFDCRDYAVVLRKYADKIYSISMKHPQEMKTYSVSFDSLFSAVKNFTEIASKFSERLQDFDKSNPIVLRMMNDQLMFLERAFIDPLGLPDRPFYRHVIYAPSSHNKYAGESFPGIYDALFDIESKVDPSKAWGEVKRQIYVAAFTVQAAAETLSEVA

Molecule | Proliferation assay on cancer cell lines by TTCs Default Pivot #3 IC50 [kBq/mL] 22Rv1 1000cells 375kBq/nmol (mean) (22Rv1 cells) | Proliferation assay on cancer cell lines by TTCs Default Pivot #3 IC50 [kBq/mL] VCap 4000cells 375kBq/nmol (mean) (VCaP cells) | Proliferation assay on cancer cell lines by TTCs Default Pivot #3 IC50 [kBq/mL] C4-2 1000cells 375kBq/nmol (mean) (C4-2 cells) | remaining activity at 0.01 µM [1] | remaining activity at 0.1 µM [1]
CNc1cc(CC(NC(=O)C2CCC(CNC(=O)Cn3c(C)cc(C(=O)NCCN(CCCN(CCNC(=O)c4cc(C)n(CC(=O)O)c(=O)c4[O-])CCNC(=O)c4cc(C)n(CC(=O)NCC5CCC(C(=O)NC(Cc6cc(NC)c7ccccc7c6)C(=O)NCCCCC(NC(=O)NC(CCC(=O)O)C(=O)O)C(=O)O)CC5)c(=O)c4[O-])CCNC(=O)c4cc(C)n(CC(=O)O)c(=O)c4[O-])c([O-])c3=O)CC2)C(=O)NCCCCC(NC(=O)NC(CCC(=O)O)C(=O)O)C(=O)O)cc2ccccc12.[227Th+4] (stereo not drawn) [37-C dimer-227Th] | 1.06 kBq/mL | 1.53 kBq/mL | 0.48 kBq/mL | – | –
Cc1cc(C(=O)NCCN(CCCN(CCNC(=O)c2cc(C)n(CC(=O)NCC3CCC(C(=O)NC(Cc4ccc5ccccc5c4)C(=O)NCCCCC(NC(=O)NC(CCC(=O)O)C(=O)O)C(=O)O)CC3)c(=O)c2[O-])CCNC(=O)c2cc(C)n(CC(=O)NCC3CCC(C(=O)NC(Cc4ccc5ccccc5c4)C(=O)NCCCCC(NC(=O)NC(CCC(=O)O)C(=O)O)C(=O)O)CC3)c(=O)c2[O-])CCNC(=O)c2cc(C)n(CC(=O)NCC3CCC(C(=O)NC(Cc4ccc5ccccc5c4)C(=O)NCCCCC(NC(=O)NC(CCC(=O)O)C(=O)O)C(=O)O)CC3)c(=O)c2[O-])c([O-])c(=O)n1CC(=O)O.[227Th+4] (stereo not drawn) [1-C trimer-227Th] | 0.74 kBq/mL | 3.11 kBq/mL | 2.24 kBq/mL | – | –
O=C([O-])CN1CCN(CC(=O)[O-])CCN(CC(=O)NCc2ccc(C(=O)N[C@@H](Cc3ccc4ccccc4c3)C(=O)NCCCC[C@H](NC(=O)N[C@@H](CCC(=O)O)C(=O)O)C(=O)O)cc2)CCN(CC(=O)[O-])CC1.[227Th+4] [Example 24-B-227Th, [^227Th]Thorium (3S,10S,14S)-3-[(naphthalen-2-yl)methyl]-1,4,12-trioxo-1-{4-[(2-{4,7,10-tris[(carboxy-kappaO)methyl]-1,4,7,10-tetraazacyclododecan-1-yl-kappa^4N^1,N^4,N^7,N^10}acetamido)methyl]phenyl}-2,5,11,13-tetraazahexadecane-10,14,16-tricarboxylate] | 0.56 kBq/mL | 0.68 kBq/mL | 0.12 kBq/mL | – | –
Cc1cc(C(=O)NCCN(CCCN(CCNC(=O)c2cc(C)n(CC(=O)O)c(=O)c2[O-])CCNC(=O)c2cc(C)n(CC(=O)NCC3CCC(C(=O)NC(Cc4cnc5ccccc5c4)C(=O)NCCCCC(NC(=O)NC(CCC(=O)O)C(=O)O)C(=O)O)CC3)c(=O)c2[O-])CCNC(=O)c2cc(C)n(CC(=O)O)c(=O)c2[O-])c([O-])c(=O)n1CC(=O)O.[227Th+4] (stereo not drawn) [Example 22-C monomer-227Th] | 0.72 kBq/mL | 2.01 kBq/mL | 0.43 kBq/mL | – | –
O=C([O-])CN1CCN(CC(=O)[O-])CCN(CC(=O)Nc2ccc(CC(=O)N[C@@H](Cc3ccc4ccccc4c3)C(=O)NCCCC[C@H](NC(=O)N[C@@H](CCC(=O)O)C(=O)O)C(=O)O)cc2)CCN(CC(=O)[O-])CC1.[227Th+4] [Example 23-B-227Th, [^227Th]Thorium-(4S,11S,15S)-4-[(naphthalen-2-yl)methyl]-2,5,13-trioxo-1-[4-(2-{4,7,10-tris[(carboxy-kappaO)methyl]-1,4,7,10-tetraazacyclododecan-1-yl-kappa^4N^1,N^4,N^7,N^10}acetamido)phenyl]-3,6,12,14-tetraazaheptadecane-11,15,17-tricarboxylate] | 0.96 kBq/mL | 3 kBq/mL | 1.32 kBq/mL | – | –
O=C([O-])CN1CCN(CC(=O)[O-])CCN(CC(=O)NCc2ccc(C(=O)N[C@@H](Cc3ccc4ccccc4c3)C(=O)NCCCC[C@H](NC(=O)N[C@@H](CCC(=O)O)C(=O)O)C(=O)O)cn2)CCN(CC(=O)[O-])CC1.[227Th+4] [Example 26-B-227Th, [^227Th]Thorium (3S,10S,14S)-3-[(naphthalen-2-yl)methyl]-1,4,12-trioxo-1-{6-[(2-{4,7,10-tris[(carboxy-kappaO)methyl]-1,4,7,10-tetraazacyclododecan-1-yl-kappa^4N^1,N^4,N^7,N^10}acetamido)methyl]pyridin-3-yl}-2,5,11,13-tetraazahexadecane-10,14,16-tricarboxylate] | 0.87 kBq/mL | 1.15 kBq/mL | 0.12 kBq/mL | – | –
O=C([O-])CN1CCN(CC(=O)[O-])CCN(CC(=O)NCc2cccc(C(=O)N[C@@H](Cc3ccc4ccccc4c3)C(=O)NCCCC[C@H](NC(=O)N[C@@H](CCC(=O)O)C(=O)O)C(=O)O)c2)CCN(CC(=O)[O-])CC1.[227Th+4] [Example 27-B-227Th, [^227Th]Thorium (3S,10S,14S)-3-[(naphthalen-2-yl)methyl]-1,4,12-trioxo-1-{3-[(2-{4,7,10-tris[(carboxy-kappaO)methyl]-1,4,7,10-tetraazacyclododecan-1-yl-kappa^4N^1,N^4,N^7,N^10}acetamido)methyl]phenyl}-2,5,11,13-tetraazahexadecane-10,14,16-tricarboxylate] | 0.65 kBq/mL | 0.73 kBq/mL | 0.08 kBq/mL | – | –
[^227Th]Thorium-{N^6-[3-(quinolin-2-yl)-N-{(1r,4S)-4-[(2-{4,7,10-tris[(carboxy-kappaO)methyl]-1,4,7,10-tetraazacyclododecan-1-yl-kappa^4N^1,N^4,N^7,N^10}acetamido)methyl]cyclohexane-1-carbonyl}-L-alanyl]-N^2-{[(1S)-1,3-dicarboxypropyl]carbamoyl}-L-lysinate} [Example 17-B-227Th] | 0.8 kBq/mL | 0.73 kBq/mL | 0.15 kBq/mL | – | –
CC(C)(C)c1ccc(C[C@H](NC(=O)[C@H]2CC[C@H](CN)CC2)C(=O)NCCCC[C@H](NC(=O)N[C@@H](CCC(=O)O)C(=O)O)C(=O)O)cc1 [Example 8-A, N^6—{N-[(1r,4S)-4-(aminomethyl)cyclohexane-1-carbonyl]-4-tert-butyl-L-phenylalanyl}-N^2-{[(1S)-1,3-dicarboxypropyl]carbamoyl}-L-lysine] | – | – | – | 92% | 111%
O=C(O)CC[C@H](NC(=O)N[C@@H](CCCCNC(=O)[C@@H](Cc1ccc2cccnc2c1)NC(=O)[C@H]1CC[C@H](CNC(=O)CN2CCN(CC(=O)O)CCN(CC(=O)O)CCN(CC(=O)O)CC2)CC1)C(=O)O)C(=O)O [Example 45-B, (3R,10S,14S)-1,4,12-trioxo-3-[(quinolin-7-yl)methyl]-1-[(1r,4S)-4-({2-[4,7,10-tris(carboxymethyl)-1,4,7,10-tetraazacyclododecan-1-yl]acetamido}methyl)cyclohexyl]-2,5,11,13-tetraazahexadecane-10,14,16-tricarboxylic acid] | – | – | – | 90% | 47%
NCc1ccc(C(=O)N[C@@H](Cc2ccc3ccccc3c2)C(=O)NCCCC[C@H](NC(=O)N[C@H](CCC(=O)O)C(=O)O)C(=O)O)nc1 [Example 25-A-D, (3S,10S,14R)-1-[5-(aminomethyl)pyridin-2-yl]-3-[(naphthalen-2-yl)methyl]-1,4,12-trioxo-2,5,11,13-tetraazahexadecane-10,14,16-tricarboxylic acid] | – | – | – | 79% | 67%
